Patent US20070269503A1, “Combinations of HMG CoA reductase inhibitors and negatively charged phospholipids and uses thereof” (priority 2006, published 2007)
Like-named read-outs stand apart in the source and are kept apart here.

Key:
HepG2 cells = conditions: cited from earlier work
[1] = normocholesterolemic male Sprague-Dawley rats; 5.5% by weight of rat chow, approximately 4 g/Kg body weight; cited from earlier work
[2] = Oral PI, plasma HDL cholesterol and apoA-I; assay type: in vivo; conditions: conventional formulations, about 5.6 g/day
Excerpt: The efficacy of orally administered phosphatidyl-inositol(PI) for raising plasma HDL cholesterol and apoA-I levels can be improved considerably (e.g. 2- to 8-fold) by combining PI with an intestinal absorption enhancer (IAE) (U.S. patent application Ser. No. 60/684212, herein incorporated by reference).

[3] = oral PI combined with an intestinal absorption enhancer (IAE); cited from earlier work

For `CC(C)c1c(C(=O)Nc2ccccc2)c(-c2ccccc2)c(-c2ccc(F)cc2)n1CC[C@@H](O)C[C@@H](O)CC(=O)O` [atorvastatin], the “inhibition of cholesterol synthesis” value (HepG2 cells; concentrations between 0.01 to 10 μM) is listed as 45-65%.
For Phosphatidic acid [PA], the “decrease in plasma triglycerides” value [1] is given as “about 40%” and the “increase in HDL cholesterol” value [1] is given as “about 2 fold”.
In the case of phosphatidylinositol [PI], the “increase in apoA-I” value [2] is given as about 10%, the “increase in plasma HDL cholesterol” value [2] is given as about 20% and the “improvement of efficacy for raising plasma HDL cholesterol and apoA-I levels” value [3] is given as 2- to 8 fold. For the same compound, the “inhibition of cholesterol synthesis” value (HepG2 cells; 11.7 μM) was 50%.
